# Data taken from US20190100549A1, “FLAVONOIDE-TYPE COMPOUNDS BEARING AN O-RHAMNOSYL RESIDUE” (Universitaet Hamburg, priority 2016, published 2019).
# Values joined by “and” are separate entries in the source; they are usually repeats but may differ in a detail not shown here. Equal values may be shown once.
# What was measured:
# [1] = test system: TNF-α; experiment: TNF-α release in stimulated NHEK (ELISA); type: cell-based, human; details: poly(I:C)
# Description: NHEK were pre-incubated for 24 h with the test compounds. The medium was replaced with the NHEK culture medium containing the inflammatory inducers (PMA or Poly I:C) and incubated for another 24 hours. Positive and negative controls ran in parallel. At the endpoint the culture supernatants were quantified of secreted IL-8, PGE2 and TNF-α by means of ELISA.
# [2] = test system: normal human epidermal keratinocytes (NHEK); experiment: Cytotoxicity on NHEK monolayer cultures (MTT reduction assay and morphological observation); type: cell-based; details: for Viability (%): single values, listed as Hes-5-Rha
# Description: To determine the cytotoxicity of flavonoid-5-O-α-L-rhamnosides tests were performed versus their aglycon derivatives in cell monolayer cultures. For this purpose concentrations ranging from 1 μM to 250 μM were chosen. The viability of normal human epidermal keratinocytes (NHEK) was twice evaluated by a MTT reduction assay and morphological observation with a microscope. NHEK were grown at 37° C. and 5% CO2 aeration in Keratinocyte-SFM medium supplemented with epidermal growth factor (EGF) at 0.25 ng/mL, pituitary extract (PE) at 25 μg/mL and gentamycin (25 μg/mL) for 24 h and were used at the 3rd passage. For cytotoxicity testing, pre-incubated NHEK were given fresh culture medium containing a specific concentration of test compound and incubated for 24 h. After a medium change at same test concentration cells were incubated a further 24 h until viability was determined. Test results are given in Table B2 and illustrated in FIG. 10.
# [3] = test system: STAT3; experiment: STAT3 activity in HeLa-STAT3-luc cells stimulated with IFN-γ (luciferase); type: cell-based; details: +IFNγ 25 U/ml; for RLU 1 / RLU 2 / RLU 3: HeLa-STAT3-luc cells; for RLU 1: replicate well 1; for RLU 2: replicate well 2; for RLU 3: replicate well 3; for RLU specific: mean minus control; for Mean: mean of triplicate wells; for % Activation: IFNγ alone = 100% activation
# Description: HeLa-STAT3-luc cells were stably transfected with the plasmid 4xM67 pTATA TK-Luc. Cells (20×10^3 cells/ml) were seeded 96-well plate the day before the assay. Then the cells were treated with the test substances for 15 min and then stimulated with IFN-γ 25 IU/ml. After 6 h, the cells were washed twice with PBS and lysed in 50 μl lysis buffer containing 25 mM Tris-phosphate (pH 7.8), 8 mM MgCl2, 1 mM DTT, 1% Triton X-100, and 7% glycerol during 15 min at RT in a horizontal shaker. Luciferase activity was measured using GloMax 96 microplate luminometer (Promega) following the instructions of the luciferase assay kit (Promega, Madison, Wis., USA). […] The experiments for each concentration of the test items were done in triplicate wells.
# [4] = test system: HaCaT cells; experiment: Glucose uptake (2-NBDG) in HaCaT keratinocytes; type: cell-based; set-up: key to Measure 1 / Measure 2 / Measure 3 / Mean: total green object integrated intensity, GCU×μm2×Well; details: +2NBDG 50 μM, 24 h; for Measure 1 / Measure 2 / Measure 3: HaCaT cells, fluorescence; for RFU specific: mean minus control; for Mean: mean of triplicate measurements; for % Glucose uptake: Rosiglitazone 80 μM = 100%
# Description: HaCaT cells (5×10^4) were seeded in 96-well black plates and incubated for 24 h. Then, medium was removed and the cells cultivated in OptiMEM, labeled with 50 μM 2-NBDG (2-[N-(7-nitrobenz-2-oxa-1,3-diazol-4-yl) amino]-2-deoxy-D-glucose and treated with the test substances or the positive control, Rosiglitazone, for 24 h. Medium was removed and the wells were carefully washed with PBS and incubated in PBS (100l/well). Finally the fluorescence was measured using the Incucyte FLR software, the data were analyzed by the total green object integrated intensity (GCU×μm2×Well) of the imaging system IncuCyte HD (Essen BioScience). The fluorescence of Rosiglitazone is taken as 100% of glucose uptake, and the glucose uptake was calculated as (% Glucose uptake)=100(T−B)/(R−B), where T (treated) is the fluorescence of test substance-treated cells, B (Basal) is the fluorescence of 2-NBDG cells and […] is the fluorescence of cells treated with Rosiglitazone.
# [5] = test system: hydrogen peroxide (DHR) in NHEK cells; experiment: Protection against UV-induced H2O2 stress in NHEK (DHR probe, flow cytometry); type: cell-based, human
# Description: Pre-incubated NHEK were incubated with the test compound for 24 h. Then the specific fluorescence probe for the measurement of hydrogen peroxide (DHR) or lipid peroxides (C11-fluor) was added and incubated for 45 min. Irradiation occurred with in H2O2 determination UVB at 180 mJ/cm^2 (+UVA at 2839 mJ/cm^2) or UVB at 240 mJ/cm^2 (+UVA at 3538 mJ/cm^2) in lipid peroxide, respectively, using a SOL500 Sun Simulator lamp. After irradiation the cells were post-incubated for 30 min before flow-cytometry analysis.
# [6] = test system: procollagen I; experiment: Procollagen I synthesis in NHDF (ELISA); type: cell-based, human; details: 100 μM, 72 hours
# Description: Tests were performed with normal human dermal fibroblast cultures at the 8th passage. Cells were grown in DMEM supplemented with glutamine at 2 mM, penicillin at 50 U/mL and streptomycin (50 μg/mL) and 10% of fetal calf serum (FCS) at 37° C. in a 5% CO2 atmosphere.
# Fibroblasts were cultured for 24 hours before the cells were incubated with the test compounds for further 72 hours. After the incubation the culture supernatants were collected in order to measure the released quantities of procollagen I, VEGF, and fibronectin by means of ELISA. Reference test compounds were vitamin C (procollagen I), PMA (VEGF), and TGF-β (fibronectin).
# [7] = 100 μM, 180 mJ/cm^2 UVB (2839 mJ/cm^2 UVA)
smiles,measurement,setting,value
"COc1ccc(C2CC(=O)c3c(cc(O)cc3O[C@@H]3O[C@@H](C)[C@H](O)[C@@H](O)[C@H]3O)O2)cc1O (stereo partly drawn) [HESR1, Hesperetin-5-O-α-L-rhamnoside]",inhibition at 100 µM,"[1]; Homo sapiens, NHEK, read-out: TNFα Inhibition %",26%
same,Cytokine [pg/mL] TNFα Mean,[1]; 100 μM,423 pg/mL
same,TNFα % stim. control,[1]; 100 μM,75%
same,Cytokine [pg/mL] TNFα,"[1]; 100 μM, single values",416 pg/mL and 429 pg/mL
same,Viability (%) Mean,[2]; 1 μM,97%
same,Viability (%),[2]; 1 μM,86% and 108%
same,Viability (%) Mean,[2]; 2.5 μM,100%
same,Viability (%),[2]; 2.5 μM,87% and 113%
same,Viability (%) Mean,[2]; 5 μM,88%
same,Viability (%),[2]; 5 μM,81% and 95%
same,Viability (%) Mean,[2]; 10 μM,95%
same,Viability (%),[2]; 10 μM,86% and 103%
same,Viability (%) Mean,[2]; 25 μM,101%
same,Viability (%),[2]; 25 μM,89% and 112%
same,Viability (%) Mean,[2]; 50 μM,87%
same,Viability (%),[2]; 50 μM,81% and 93%
same,Viability (%) Mean,[2]; 100 μM,97%
same,Viability (%),[2]; 100 μM,86% and 108%
same,Viability (%) Mean,[2]; 250 μM,96%
same,Viability (%),[2]; 250 μM,91% and 102%
same,RLU 1,[3]; 25 μM test substance,13396 RLU
same,RLU 2,[3]; 25 μM test substance,12243 RLU
same,RLU 3,[3]; 25 μM test substance,12859 RLU
same,RLU specific,[3]; 25 μM test substance,10825 RLU
same,Mean,[3]; 25 μM test substance,12833 RLU
same,% Activation,[3]; 25 μM test substance,86.48%
same,RLU 1,[3]; 50 μM test substance,14303 RLU
same,RLU 2,[3]; 50 μM test substance,13124 RLU
same,RLU 3,[3]; 50 μM test substance,11985 RLU
same,RLU specific,[3]; 50 μM test substance,11130 RLU
same,Mean,[3]; 50 μM test substance,13137 RLU
same,% Activation,[3]; 50 μM test substance,88.92%
same,Measure 1,[4]; 25 μM test substance,756943
same,Measure 2,[4]; 25 μM test substance,549324
same,Measure 3,[4]; 25 μM test substance,384251
same,RFU specific,[4]; 25 μM test substance,557192 RFU
same,Mean,[4]; 25 μM test substance,563506
same,% Glucose uptake,[4]; 25 μM test substance,64.1%
same,Measure 1,[4]; 50 μM test substance,501977
same,Measure 2,[4]; 50 μM test substance,642949
same,Measure 3,[4]; 50 μM test substance,529620
same,RFU specific,[4]; 50 μM test substance,551868 RFU
same,Mean,[4]; 50 μM test substance,558182
same,% Glucose uptake,[4]; 50 μM test substance,63.5%
same,anti-oxidative function on mitochondrially produced hydrogen peroxids species (in words),[5],anti-oxidative function
same,H2O2 % irradiated control,[5]; [7],62%
same,H2O2 (AU) Mean,[5]; [7],1152 AU
same,H2O2 Protection %,[5]; [7],45%
same,H2O2 (AU) (DHR GMFI),"[5]; 100 μM, 180 mJ/cm^2 UVB (2839 mJ/cm^2 UVA), single values",1046 AU and 1258 AU
same,Procollagen I % Control,[6],118%
same,Procollagen I Mean,[6],1968 ng/mL
same,Procollagen I,[6]; single values,1929 ng/mL and 2007 ng/mL
